Data: patent US20040023362A1, “Degradation of polycyclic aromatic hydrocarbons by microorganisms” (priority 2000, published 2004)
Entries after “also recorded” stand apart in the source; their conditions may differ.

Experiments:
strain VUN 10,010 = assay: Agar (well) diffusion toxicity test of surfactants; format: cell-based, Stenotrophomonas maltophilia; conditions: concentrations of 5 and 10 g l^−1
Experimental: The agar diffusion method was used to determine the effects of surfactants on growth by observing zones of inhibition on peptone-glucose agar (Cserhali et al, 1991). The medium contained per litre: 5 g peptone, 5 g glucose, 0.5 g NaCl, 3 g beef extract, 20 g agar; the pH was adjusted to 7.0 and sterilized by autoclaving for 15 min at 121° C. Bacterial cultures were mixed with the molten medium (25 ml) to obtain an inoculum size of approximately 10^8 cells ml^−1, and this was poured into a Petri dish. Once the cell-medium mixture had solidified, 7 mm diameter holes were made, and 150 μl of aqueous surfactant solutions was added (0.1-10.0 g l^−1). Growth inhibition zones were observed after 48-72 h at 30° C.

[1] = Surfactant critical micelle concentration, duNouy ring tensitometer; format: physicochemical; conditions: for CMC in BSM compared with deionized (distilled) water: 30° C.; for CMC: in BSM
Experimental: Experiments to evaluate surfactant CMC values were conducted at 30° C. using a duNouy ring tensitometer (Cambridge Instrument Company Limited, London, England). All glassware was cleaned with chromic acid solution, and the tensitometer ring was cleaned with acetone and heated to redness in a gas flame. Various concentrations of surfactant solutions were prepared in deionized water and BSM. Surfactant solutions were allowed to equilibrate for approximately 2 h before measurements were made. Measurements were an average of five readings (SD<0.3%). CMC value was taken from the plot of surface tension versus log surfactant concentration, as described by Kile and Chiou (1989).

physchem = assay: physchem
Experimental: PAHs (approximately 1 g l^−1) were added to a 10 ml solution of BSM plus surfactant in a 30 ml glass reaction vial, which was sealed with an aluminium cap fitted with a septum. Surfactant concentrations corresponded to levels above, below, and at the CMC, and replicates were set up to allow sampling in duplicate at different time intervals up to 72 h. Incubation was performed at 30° C. and 175 rpm. The entire vial contents was collected by syringe and expressed through a preconditioned membrane filter (0.22 μm, Sartorius AG, Germany) to remove solid-phase crystalline PAH while allowing solubilized PAH in the aqueous phase and micellar pseudophase to pass into sterile vials. The filter was preconditioned by purging the filter with a few mls of sample solution to allow sorption saturation of the internal surfaces of the syringe, filter and needle. The filtrates were extracted with dichloromethane (DCM), and the concentration of solubilized PAH was determined by GC-FID as described below.
The effectiveness of a particular surfactant in solubilizing a given PAH can be assessed by determining the molar solubilization ratio (MSR) and micelle/water partition coefficient (Km). In our study, the concentrations of added PAHs were well in excess of aqueous saturation concentrations; therefore the MSR value of each compound can be obtained from the slope of the curve generated from a plot of PAH concentration versus surfactant concentration for surfactant concentrations above CMC (Edwards et al, 1991).
Km values can be determined from the measured MSR values according to the following equation (Edwards et al, 1991): [formula]
^SPAH, CMC is the apparent solubility of the PAH (mol l^−1) at surfactant CMC. VW is the molar volume of water at 30° C. ie. 0.018015 l mol^−1(Rogers and Mayhew, 1981).

[2] = system: S. maltophilia VUN 10,010; assay: Pyrene degradation and growth of VUN 10,010 in the presence of surfactants; format: cell-based, Stenotrophomonas maltophilia; conditions: for effect on growth of VUN 10,010 on pyrene (protein analysis, MPN): surfactant 5-10 g l^−1; for effect on pyrene degradation by VUN 10,010: surfactant 5-10 g l^−1 (up to 10 g l^−1)
Experimental: Each surfactant was added to the medium to achieve the following concentrations: 0.5 g l^−1 (▴), 5.0 g l^−1 (●) and 10.0 g l^−1 (▪). The control cultures ( ) contained no added surfactant. The incubations were performed in BSM at 30° C., using low initial cell populations.
Growth was monitored by measuring protein concentration and viable cell numbers at regular intervals up to 10 days. Viable cell numbers were determined by most probable number (MPN) estimates (Collin et al, 1989).
Three types of controls were used: cultures containing no surfactant, uninoculated broth, and killed cell cultures (0.2% HgCl2). All cultures were incubated at 30° C./175 rpm. Bacterial growth was determined by MPN estimates.

[3] = data from the manufacturers; cited from earlier work
[4] = Ghosh et al (1995); medium and temperature not specified; cited from earlier work

Substance	effect on microbial growth (strain VUN 10,010)	CMC in BSM compared with deionized (distilled) water [1]	CMC [1] [mM]	MSR (molar solubilization ratio), PYR (physchem)	log Km (micelle-phase/aqueous-phase partition coefficient), PYR (physchem)	effect on growth of VUN 10,010 on pyrene (protein analysis, MPN) [2]	effect on pyrene degradation by VUN 10,010 [2]	HLB (hydrophile-lipophile balance number) [3]	MSR (molar solubilization ratio), BAP (physchem)	MSR (molar solubilization ratio), FA (physchem)	log Km (micelle-phase/aqueous-phase partition coefficient), BAP (physchem)	log Km (micelle-phase/aqueous-phase partition coefficient), FA (physchem)	MSR for benzo[a]pyrene [4]	reduction of time required for VUN 10,010 to degrade 250 mg l^−1 of pyrene ([2]; surfactant 5-10 g l^−1, presolubilized pyrene) [%]
Igepal CA-630	some inhibition	higher CMC values in BSM	0.1078	0.0326	5.39	inhibited	inhibited pyrene degradation; also recorded: inhibitory to pyrene degradation	13.0						
Triton X-100		higher CMC values in distilled water	0.2320	0.0352	5.84		enhanced	13.5	0.0113	0.0508	7.49	5.64	1.5×10^−2	
Tyloxapol		higher CMC values in distilled water	0.0167	0.0820	6.60	significantly improved	enhanced	12.9						50
